Experiments:
[1] = Saturation concentration of cyclotetrasaccharide in water; type: physicochemical
From the text: The resulting each saturated solution of cyclotetrasaccharide was membrane filtered to remove undissolved cyclotetrasaccharide, and each filtrate was then examined for moisture content by the drying loss method to determine a saturation concentration of cyclotetrasaccharide at respective temperatures.

salivary amylase = target: T1, salivary amylase (Homo sapiens, UniProt P0DUB6)
T1 sequence (P0DUB6 16-511): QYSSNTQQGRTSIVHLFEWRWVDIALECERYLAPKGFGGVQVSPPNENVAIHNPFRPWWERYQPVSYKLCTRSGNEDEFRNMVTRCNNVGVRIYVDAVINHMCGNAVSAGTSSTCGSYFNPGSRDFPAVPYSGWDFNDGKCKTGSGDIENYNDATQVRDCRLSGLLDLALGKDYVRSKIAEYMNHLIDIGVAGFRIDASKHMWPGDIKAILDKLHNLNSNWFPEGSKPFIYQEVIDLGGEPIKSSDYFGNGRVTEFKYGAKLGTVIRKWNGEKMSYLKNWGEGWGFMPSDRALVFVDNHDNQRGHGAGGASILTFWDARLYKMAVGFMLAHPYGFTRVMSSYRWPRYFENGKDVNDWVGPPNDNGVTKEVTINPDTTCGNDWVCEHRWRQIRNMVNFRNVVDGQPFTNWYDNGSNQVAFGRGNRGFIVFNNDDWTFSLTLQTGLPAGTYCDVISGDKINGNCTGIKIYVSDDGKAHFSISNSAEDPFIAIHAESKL

[2] = test system: Small intestinal mucosal enzyme

Q: For `OCC1OC2OCC3O[C@H](O[C@H]4C(O)C(CO)OC(OCC5O[C@H](O[C@@H](C1O)C2O)C(O)C(O)[C@@H]5O)C4O)C(O)C(O)[C@@H]3O` (stereo partly drawn) [cyclotetrasaccharide, cyclo{→6)-α-D-glucopyranosyl-(1→3)-α-D-glucopyranosyl-(1→6)-α-D-glucopyranosyl-(1→3)-α-D-glucopyranosyl-(1→}], which “Saturation concentration (%)” value ([1]; 10 ° C.) is on record?
A: 30.3%

Q: What about the “Saturation concentration (%)” value ([1]; 30 ° C.) of the same compound?
A: 34.2%

Q: And the “Saturation concentration (%)” value ([1]; 50 ° C.)?
A: 42.6%

Q: What about the “Saturation concentration (%)” value ([1]; 70 ° C.) of the same compound?
A: 53.0%

Q: And the “Saturation concentration (%)” value ([1]; 90 ° C.)?
A: 70.5%

Q: What about the “Decomposition percentage (%) by digestive enzyme” value (salivary amylase) of the same compound?
A: 0.0%

Q: And the “Decomposition percentage (%) by digestive enzyme” value [2]?
A: 0.74%

Q: And the “digestibility level relative to that of maltitol” value [2]?
A: ⅕
